We go through eight compounds from ChEMBL document CHEMBL2321769, “Regioselective synthesis of 5- and 6-methoxybenzimidazole-1,3,5-triazines as inhibitors of phosphoinositide 3-kinase” (Bioorg Med Chem Lett, 2013).

In general, IC50 refers to the midpoint of a concentration-inhibition curve. A low value points to higher potency.

Test [1] concerns the target T1, Phosphatidylinositol 4,5-bisphosphate 3-kinase catalytic subunit delta isoform (Homo sapiens, UniProt O00329).
T1 sequence (O00329 whole entry): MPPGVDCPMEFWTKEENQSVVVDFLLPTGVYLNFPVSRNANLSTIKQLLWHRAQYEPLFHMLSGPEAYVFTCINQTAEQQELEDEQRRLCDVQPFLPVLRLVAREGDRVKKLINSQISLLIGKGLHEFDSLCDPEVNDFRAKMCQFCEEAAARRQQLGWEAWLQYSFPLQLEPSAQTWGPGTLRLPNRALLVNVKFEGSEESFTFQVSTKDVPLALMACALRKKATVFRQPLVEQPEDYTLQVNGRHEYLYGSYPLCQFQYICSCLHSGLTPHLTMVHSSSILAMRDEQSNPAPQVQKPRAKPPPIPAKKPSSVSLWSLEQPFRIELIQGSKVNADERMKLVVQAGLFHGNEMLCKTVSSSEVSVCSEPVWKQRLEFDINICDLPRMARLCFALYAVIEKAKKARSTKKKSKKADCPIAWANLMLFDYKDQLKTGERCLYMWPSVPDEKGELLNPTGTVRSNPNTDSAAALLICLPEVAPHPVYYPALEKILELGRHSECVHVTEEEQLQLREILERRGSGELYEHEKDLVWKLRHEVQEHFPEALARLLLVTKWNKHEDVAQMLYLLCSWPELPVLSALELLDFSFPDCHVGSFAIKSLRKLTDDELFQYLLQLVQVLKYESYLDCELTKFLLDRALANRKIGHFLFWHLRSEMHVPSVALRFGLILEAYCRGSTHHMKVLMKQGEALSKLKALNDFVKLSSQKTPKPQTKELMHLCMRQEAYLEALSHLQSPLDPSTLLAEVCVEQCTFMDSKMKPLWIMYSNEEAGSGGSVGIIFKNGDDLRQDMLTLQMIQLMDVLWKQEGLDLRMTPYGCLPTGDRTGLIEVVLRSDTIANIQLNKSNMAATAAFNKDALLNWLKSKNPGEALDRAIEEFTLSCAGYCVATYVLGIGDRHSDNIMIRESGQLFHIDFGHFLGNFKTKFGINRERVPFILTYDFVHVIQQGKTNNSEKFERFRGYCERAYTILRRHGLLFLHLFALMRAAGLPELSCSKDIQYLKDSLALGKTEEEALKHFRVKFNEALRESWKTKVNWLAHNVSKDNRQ
Nature of the test: Inhibition of PI3Kdelta (unknown origin) expressed in SF21 cells using phosphatidylinositol as substrate after 60 mins by Kinase-Glo assay. On the technique in general: Kinase-Glo reads ATP consumption through a luciferase reaction.

In test [2] the target is Phosphatidylinositol 4,5-bisphosphate 3-kinase catalytic subunit gamma isoform (Homo sapiens, UniProt P48736). Nature of the test: Inhibition of PI3Kgamma (unknown origin) expressed in SF21 cells using phosphatidylinositol as substrate after 60 mins by Kinase-Glo assay.
Chain of Phosphatidylinositol 4,5-bisphosphate 3-kinase catalytic subunit gamma isoform (P48736 whole entry, canonical isoform): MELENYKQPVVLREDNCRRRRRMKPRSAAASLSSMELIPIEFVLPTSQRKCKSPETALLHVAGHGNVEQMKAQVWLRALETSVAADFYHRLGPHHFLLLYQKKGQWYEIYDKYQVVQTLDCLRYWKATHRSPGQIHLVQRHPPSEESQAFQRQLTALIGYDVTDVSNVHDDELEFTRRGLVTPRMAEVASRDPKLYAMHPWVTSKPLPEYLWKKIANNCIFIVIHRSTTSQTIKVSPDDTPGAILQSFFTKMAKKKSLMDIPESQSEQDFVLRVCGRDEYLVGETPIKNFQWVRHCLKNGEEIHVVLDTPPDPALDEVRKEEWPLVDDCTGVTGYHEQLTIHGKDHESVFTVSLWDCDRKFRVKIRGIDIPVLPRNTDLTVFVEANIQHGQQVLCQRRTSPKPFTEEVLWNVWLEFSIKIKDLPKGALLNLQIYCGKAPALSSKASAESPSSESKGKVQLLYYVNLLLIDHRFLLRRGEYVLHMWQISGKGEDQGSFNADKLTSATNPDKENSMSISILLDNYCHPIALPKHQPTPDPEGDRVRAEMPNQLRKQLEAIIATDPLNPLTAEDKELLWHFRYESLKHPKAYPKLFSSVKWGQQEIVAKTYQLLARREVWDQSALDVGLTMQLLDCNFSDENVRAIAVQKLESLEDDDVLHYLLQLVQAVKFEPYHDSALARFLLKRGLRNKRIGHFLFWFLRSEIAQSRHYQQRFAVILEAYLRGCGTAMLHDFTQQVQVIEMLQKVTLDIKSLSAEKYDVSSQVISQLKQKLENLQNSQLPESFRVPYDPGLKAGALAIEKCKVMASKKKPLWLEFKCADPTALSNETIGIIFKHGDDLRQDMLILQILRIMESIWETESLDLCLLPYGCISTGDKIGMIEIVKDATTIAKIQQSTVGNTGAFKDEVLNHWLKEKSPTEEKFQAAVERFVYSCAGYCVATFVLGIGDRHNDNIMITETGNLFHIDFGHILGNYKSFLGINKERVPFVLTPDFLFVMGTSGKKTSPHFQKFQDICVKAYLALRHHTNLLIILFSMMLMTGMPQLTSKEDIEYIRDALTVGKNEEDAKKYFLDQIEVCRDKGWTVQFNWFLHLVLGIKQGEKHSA
For test [3], the target named is Phosphatidylinositol 4,5-bisphosphate 3-kinase catalytic subunit beta isoform (Homo sapiens, UniProt P42338). As to the kind of experiment: Inhibition of PI3Kbeta (unknown origin) expressed in SF21 cells using phosphatidylinositol as substrate after 60 mins by Kinase-Glo assay.
Chain of Phosphatidylinositol 4,5-bisphosphate 3-kinase catalytic subunit beta isoform (P42338 whole entry, canonical isoform): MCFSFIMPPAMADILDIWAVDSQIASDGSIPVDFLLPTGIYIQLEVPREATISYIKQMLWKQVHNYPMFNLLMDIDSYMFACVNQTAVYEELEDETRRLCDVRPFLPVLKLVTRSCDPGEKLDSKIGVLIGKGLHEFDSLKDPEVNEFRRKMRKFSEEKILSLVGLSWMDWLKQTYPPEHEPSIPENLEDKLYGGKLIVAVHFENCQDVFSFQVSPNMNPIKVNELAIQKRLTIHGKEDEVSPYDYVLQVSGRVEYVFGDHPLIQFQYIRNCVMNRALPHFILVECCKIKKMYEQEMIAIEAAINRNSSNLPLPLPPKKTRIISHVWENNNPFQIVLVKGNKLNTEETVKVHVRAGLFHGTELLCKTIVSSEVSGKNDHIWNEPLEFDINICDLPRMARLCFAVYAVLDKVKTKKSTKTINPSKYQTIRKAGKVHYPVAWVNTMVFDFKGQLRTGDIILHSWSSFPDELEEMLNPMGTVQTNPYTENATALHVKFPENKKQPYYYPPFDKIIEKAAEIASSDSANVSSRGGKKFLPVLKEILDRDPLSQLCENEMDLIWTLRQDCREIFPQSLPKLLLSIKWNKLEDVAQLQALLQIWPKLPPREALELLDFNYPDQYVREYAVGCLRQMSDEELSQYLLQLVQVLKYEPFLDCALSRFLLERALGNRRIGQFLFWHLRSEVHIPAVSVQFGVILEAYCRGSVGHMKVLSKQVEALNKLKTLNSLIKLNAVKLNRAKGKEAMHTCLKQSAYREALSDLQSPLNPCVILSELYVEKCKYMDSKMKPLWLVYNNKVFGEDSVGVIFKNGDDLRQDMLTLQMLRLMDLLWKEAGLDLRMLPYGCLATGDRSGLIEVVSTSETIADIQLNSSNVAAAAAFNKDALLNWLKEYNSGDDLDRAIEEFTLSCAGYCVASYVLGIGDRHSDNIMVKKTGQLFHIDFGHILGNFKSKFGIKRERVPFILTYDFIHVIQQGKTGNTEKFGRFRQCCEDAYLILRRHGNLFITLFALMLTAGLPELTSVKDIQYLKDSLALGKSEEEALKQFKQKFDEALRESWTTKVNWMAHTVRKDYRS
Test [4] deals with Phosphatidylinositol 4,5-bisphosphate 3-kinase catalytic subunit alpha isoform (Homo sapiens, UniProt P42336). As to the kind of experiment: Inhibition of PI3Kalpha (unknown origin) expressed in SF21 cells using phosphatidylinositol as substrate after 60 mins by Kinase-Glo assay.
Chain of Phosphatidylinositol 4,5-bisphosphate 3-kinase catalytic subunit alpha isoform (P42336 whole entry, canonical isoform): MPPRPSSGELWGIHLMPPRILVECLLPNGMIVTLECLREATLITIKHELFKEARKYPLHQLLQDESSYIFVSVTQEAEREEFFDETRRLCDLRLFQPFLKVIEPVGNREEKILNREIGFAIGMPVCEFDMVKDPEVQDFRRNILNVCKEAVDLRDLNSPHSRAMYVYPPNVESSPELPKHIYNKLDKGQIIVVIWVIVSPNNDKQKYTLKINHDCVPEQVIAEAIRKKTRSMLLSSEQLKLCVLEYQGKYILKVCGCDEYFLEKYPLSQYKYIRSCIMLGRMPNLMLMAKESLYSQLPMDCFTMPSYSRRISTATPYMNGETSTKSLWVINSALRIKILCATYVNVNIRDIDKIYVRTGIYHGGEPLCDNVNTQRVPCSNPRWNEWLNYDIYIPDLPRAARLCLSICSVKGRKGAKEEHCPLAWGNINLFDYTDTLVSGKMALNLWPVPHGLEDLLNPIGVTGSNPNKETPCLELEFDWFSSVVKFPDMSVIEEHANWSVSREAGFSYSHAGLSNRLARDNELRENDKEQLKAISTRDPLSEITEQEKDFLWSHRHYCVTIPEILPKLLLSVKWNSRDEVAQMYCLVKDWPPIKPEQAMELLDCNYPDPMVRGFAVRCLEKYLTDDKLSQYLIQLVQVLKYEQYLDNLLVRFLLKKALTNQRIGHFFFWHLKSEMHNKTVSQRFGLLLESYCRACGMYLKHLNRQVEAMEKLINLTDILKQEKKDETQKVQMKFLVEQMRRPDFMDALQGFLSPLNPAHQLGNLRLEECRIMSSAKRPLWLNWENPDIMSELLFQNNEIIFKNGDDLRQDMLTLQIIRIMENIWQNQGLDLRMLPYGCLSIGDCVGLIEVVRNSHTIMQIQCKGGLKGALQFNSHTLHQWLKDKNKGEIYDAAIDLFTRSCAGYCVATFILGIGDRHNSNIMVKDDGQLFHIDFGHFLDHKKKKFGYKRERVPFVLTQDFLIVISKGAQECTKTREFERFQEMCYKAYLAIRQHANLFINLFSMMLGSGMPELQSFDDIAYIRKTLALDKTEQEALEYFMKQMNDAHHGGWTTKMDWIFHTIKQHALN

Consider `Cc1nc2ccccc2n1-c1nc(N2CCOCC2)nc(N2CCOCC2)n1`, for which the IC50 is 187 nM in test [1], 1860 nM in test [2], 523 nM in test [3] and 290 nM in test [4].
As for `COc1ccc2c(c1)nc(C(F)F)n2-c1nc(N2CCOCC2)nc(N2CCOCC2)n1`, the IC50 in test [1] was greater than 1000 nM; in test [2], greater than 10000 nM; in test [3] it was greater than 10000 nM; in test [4], greater than 5000 nM.
For `COc1ccc2nc(C(F)F)n(-c3nc(N4CCOCC4)nc(N4CCOCC4)n3)c2c1`, the IC50 was 110 nM in test [1], greater than 10000 nM in test [2], 214 nM in test [3] and 375 nM in test [4].
Taken in the same sequence, the figures for `COc1ccc2c(c1)nc(C)n2-c1nc(N2CCOCC2)nc(N2CCOCC2)n1` were 2770 nM, greater than 10000 nM, greater than 10000 nM and 9200 nM.
Regarding `COc1ccc2nc(C)n(-c3nc(N4CCOCC4)nc(N4CCOCC4)n3)c2c1`, the IC50 in test [1] is 458 nM; in test [2] it was greater than 10000 nM; in test [3], 1790 nM; in test [4] it was 823 nM.
Taken in the same sequence, the figures for `CC(C)c1nc2ccccc2n1-c1nc(N2CCOCC2)nc(N2CCOCC2)n1` were 128 nM, 2530 nM, 419 nM and 431 nM.
For `COc1ccc2c(c1)nc(C(C)C)n2-c1nc(N2CCOCC2)nc(N2CCOCC2)n1`, the IC50 in test [1] was 1120 nM; in test [2], greater than 10000 nM; in test [3] it was greater than 10000 nM; in test [4], greater than 10000 nM.
For the compound `COc1ccc2nc(C(C)C)n(-c3nc(N4CCOCC4)nc(N4CCOCC4)n3)c2c1`, the IC50 in test [1] was 423 nM; in test [2], greater than 10000 nM; in test [3], 726 nM; in test [4] it was 1050 nM.
